We go through 16 compounds from patent US8791144B2, “Substituted N-phenyl-1-(4-Pyridinyl)-1H-pyrazol-3-amines” (Janssen Pharmaceutica NV, priority 2009, dated 2014).

Each structure is given as a SMILES string.

Series [1] addresses T1, hα7-wt nAChR (Homo sapiens, UniProt P36544). As to the kind of experiment: Ca2+ flux imaging (FDSS): potentiation of the choline response. The settings on record: Ca2+ assay as described in D.1; potentiation of choline response, hα7-wt nAChR; read-out: Potency (pEC50) (converted). The format is cell-based. The procedure:
• a) Assay Buffer • Hanks buffered saline solution (HBSS, Invitrogen, Belgium), supplemented with 10 mM HEPES (Invitrogen, Belgium), CaCl2 to a final concentration of 5 mM, 0.1% Bovine serum albumin (Sigma-Aldrich NV, Belgium). • b) Calcium-Sensitive Dye—Fluo-4AM • Fluo-4AM (Molecular Probes, USA) was dissolved in DMSO containing 10% Pluronic acid (Molecular Probes, USA) to give a stock solution which was diluted in assay buffer supplemented with 5 mM probenicid (Sigma, Aldrich NV, Belgium) to give a final concentration of 2 μM. • c) 384-Well Plates • Black 384 well plate black/clear plates, PDL pre-coated (Corning, Incorporated, USA) • d) Calcium Flux Measurement • A Functional drug screening system (FDSS, Hamamatsu) was used to measure intracellular free-calcium flux signals. Method
Monolayers of hα7-wt nAChR-expressing cells were grown in multi-well plates, in particular black-sided, transparent bottomed 384 well plates coated with poly-D-lysine for 24 hours prior to loading with a fluorescent calcium indicator, in a particular embodiment loading with fluo-4AM for up to 120 minutes.
PAM activity was detected in real time by applying the compounds to be tested to the loaded cells along with a α7 nicotinic receptor agonist during constant monitoring of cellular fluorescence in a FDSS. Compounds giving peak fluorescent responses greater than the response due to agonist alone, were considered to be α7 nAChR PAM's. In a particular embodiment, the α7 nicotinic receptor agonist was choline, a more particular embodiment choline applied at a sub-maximal concentration of 100 μM. In a further setting of the present invention the compounds to be tested were applied prior to the α7 nicotinic receptor agonist, in a particular embodiment up to 10 minutes prior to the agonist.
A control response to choline was calculated on each plate from the difference in peak in fluorescence in wells receiving either choline or assay buffer alone. Compounds of the present invention were tested at a concentration range from 0.01 μM to 30 μM. Compounds were considered to have an interesting activity when they potentiated the choline signal at least with 200% when tested at a concentration of 30 μM (the efficacy of 100 μM choline was defined as 100% in the absence of a PAM). An EC50 (or pEC50) was determined as a concentration relating to half the maximal effect, when a clear sigmoidal curve with top plateau was obtained.
On the technique in general: Calcium assays in cells follow changes in intracellular calcium, usually with a dye or a luminescent sensor.

The target in series [2] is T1, hα7-wt nAChR. As to the kind of experiment: Patch-clamp current recording (whole-cell voltage clamp), potentiation of choline current and PAM type. The series is classed as cell-based. Set-up: key: Type 0 compounds minimally enhance the effect size of the current elicited by 1 mM choline.; Type 1 compounds enhance the effect size of the current elicited by 1 mM choline but minimally alter the kinetics of the receptor.; Type 2 compounds enhance the effect size of the current elicited by 1 mM choline while reducing the rate and/or the extent of desensitization.; Type 3 compounds enhance the effect size of the current elicited by 1 mM choline. When tested at higher concentrations up to 10 μM they completely inhibit desensitization, in particular a 1 mM choline application of 250 milliseconds.; Type 4 compounds allow for an initial desensitization of the receptor followed by a re-opening of the receptor during agonist application. The settings on record: hα7-wt nAChR-expressing GH4C1 cells, 1 mM choline. The procedure:
The compounds of the present invention are classified as type 0-4, based on qualitative kinetic properties, as determined by whole-cell voltage-clamp recordings. This classification is based on the effect of an α7 PAM compound, as described hereinbefore, on the signal elicited by an agonist application. In particular, said agonist is choline at a concentration of 1 mM. In a preferred experimental setting, said α7 PAM compound and choline are simultaneously applied to the cell, as described hereinafter. Desensitization is defined as the closure of the receptor upon activation during the application of the agonist in whole-cell voltage-clamp electrophysiology measurements seen as the reduction of the […] current after initial activation by the agonist.
The definition of the PAM types 0-4 is described hereinafter: • Type 0 compounds minimally enhance the effect size of the current elicited by 1 mM choline. • Type 1 compounds enhance the effect size of the current elicited by 1 mM choline but minimally alter the kinetics of the receptor. In particular, the rate and the extent of desensitization, elicited by the agonist, is not affected. The compound-modulated response to 1 mM choline, therefore, is a close to linear scaling of the 1 mM choline response in absence of the α7 PAM compound. • Type 2 compounds enhance the effect size of the current elicited by 1 mM choline while reducing the rate and/or the extent of desensitization. • Type 3 compounds enhance the effect size of the current elicited by 1 mM choline. […] At low-potency concentrations of the α7 PAM compound, the agonist-induced activation, which is followed by desensitization, can still be separated from the compound-induced re-opening as an initial inward current-maximum. At higher potency concentrations of the α7 PAM compound, the re-opening occurs faster than the closure due to desensitization so that the initial current-maximum disappears.
A compound was considered to have interesting PAM-like activity when the potentiation of the peak current was at least 200% compared to the control choline response (=100%). Such compounds are classified as belonging to a particular PAM type in the Experimental Part. Compounds not meeting the condition are not classified as belonging to a particular PAM-type.
The compounds also have a potentiating effect on the response to choline when measured by whole-cell patch clamp electrophysiology in GH4C1 cells stably over-expressing the human wild-type α7 receptor.
Patch-clamp recording from mammalian cells has provided a powerful means of assessing the function of membrane-bound proteins thought to be subunits of ligand-gated ion channels. Activation of such proteins by endogenous or exogenous ligands cause opening of a pore associated with the receptor through which ions flow down their electrochemical gradient. In the case of the hα7-wt nAChR-expressing GH4C1 recombinant cell line the preferential permeability to calcium of this receptor means that calcium flows into the cell upon activation by ACh, choline and other nicotinic ligands giving rise to a calcium current. Since this receptor rapidly desensitizes in the presence of agonist it is important an application system is used which is capable of very rapid switching of solutions (<100 ms) to prevent partial or full desensitisation of receptor responses coincident with the time of agonist application. Consequently, a second convenient technique to assess the enhancement of nicotinic efficacy is patch-clamp recording from hα7-wt nAChR-expressing GH4C1 cells coupled with a rapid-application system.
• a) Assay Buffers • The external recording solution consisted of 152 mM NaCl, 5 mM KCl, 1 mM MgCl2, 1 mM Calcium, 10 mM HEPES; pH 7.3. […]

T1 sequence (P36544 23-502): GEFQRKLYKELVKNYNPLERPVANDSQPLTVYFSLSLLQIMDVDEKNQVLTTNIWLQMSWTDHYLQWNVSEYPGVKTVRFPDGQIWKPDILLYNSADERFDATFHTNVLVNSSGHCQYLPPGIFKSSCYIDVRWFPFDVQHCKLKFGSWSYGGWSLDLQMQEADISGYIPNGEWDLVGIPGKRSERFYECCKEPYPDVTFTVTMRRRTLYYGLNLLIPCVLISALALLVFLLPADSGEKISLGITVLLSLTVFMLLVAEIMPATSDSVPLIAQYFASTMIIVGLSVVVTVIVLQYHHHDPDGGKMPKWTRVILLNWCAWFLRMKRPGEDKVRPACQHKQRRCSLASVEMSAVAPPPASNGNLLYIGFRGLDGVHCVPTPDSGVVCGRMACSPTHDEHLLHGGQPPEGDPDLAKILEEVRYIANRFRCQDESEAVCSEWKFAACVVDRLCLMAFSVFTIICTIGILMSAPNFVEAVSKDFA

One may read the melting point as the temperature, or range, at which the solid turns liquid. `Cc1cc(-n2nc(Nc3cccc(Cl)c3F)cc2CC(=O)NC2CC2)ccn1` [Compound 76, 3-[(3-chloro-2-fluorophenyl)amino]-N-cyclopropyl-1-(2-methyl-4-pyridinyl)-1H-pyrazole-5-acetamide]: the melting point was determined as 192.6 °C. Further, on hα7-wt nAChR [1], the EC50 was 1.1 µM. Moreover, the PAM type on hα7-wt nAChR [2] is given as 3.
For `Cc1cc(-n2nc(Nc3cccc(Cl)c3F)cc2CC(=O)NC2CC2)cc(C)n1` [Compound 78, 3-[(3-chloro-2-fluorophenyl)amino]-N-cyclopropyl-1-(2,6-dimethyl-4-pyridinyl)-1H-pyrazole-5-acetamide] the same measures were 222.9 °C, 0.407 µM and 2.
`Cc1cc(-n2nc(Nc3cccc(Cl)c3F)cc2CC(=O)NCC2CC2)ccn1` [Compound 79, 3-[(3-chloro-2-fluorophenyl)amino]-N-(cyclopropylmethyl)-1-(2-methyl-4-pyridinyl)-1H-pyrazole-5-acetamide]: the melting point came to 220.5 °C. Moreover, the EC50 at hα7-wt nAChR [1] is 0.302 µM. In addition, the PAM type at hα7-wt nAChR [2] turned out to be 4.
Consider `Cc1cc(-n2nc(Nc3cccc(Cl)c3F)cc2CCC(=O)N(C)C)ccn1` [Compound 84, 3-[(3-chloro-2-fluorophenyl)amino]-N,N-dimethyl-1-(2-methyl-4-pyridinyl)-1H-pyrazole-5-propanamide], for which the EC50 at hα7-wt nAChR [1] was 0.661 µM. For the same compound, the PAM type at hα7-wt nAChR [2] was 4.
In the case of `CCNC(=O)Cc1cc(Nc2ccc3c(c2)OC(F)(F)O3)nn1-c1ccnc(C)c1` [Compound 98, 3-[(2,2-difluoro-1,3-benzodioxol-5-yl)amino]-N-ethyl-1-(2-methyl-4-pyridinyl)-1H-pyrazole-5-acetamide], the melting point amounted to 239.2 °C. In addition, at hα7-wt nAChR [1], the EC50 is 1.2 µM. Besides, at hα7-wt nAChR [2], the PAM type amounted to 2.
Compound `Cc1cc(-n2nc(Nc3cccc(OC(F)(F)F)c3)cc2CC(=O)NC(C)C)cc(C)n1` [Compound 116, 1-(2,6-dimethyl-4-pyridinyl)-N-(1-methylethyl)-3-[[3-(trifluoromethoxy)phenyl]amino]-1H-pyrazole-5-acetamide] had a melting point of 229.1 °C. Moreover, the EC50 at hα7-wt nAChR [1] is 0.245 µM. Also, the PAM type on hα7-wt nAChR [2] worked out at 2.
Take `Cc1cc(-n2nc(Nc3cccc(Cl)c3F)cc2CC(=O)NCC2CC2)cc(C)n1` [Compound 80, 3-[(3-chloro-2-fluorophenyl)amino]-N-(cyclopropylmethyl)-1-(2,6-dimethyl-4-pyridinyl)-1H-pyrazole-5-acetamide]: the melting point came out at 210.4 °C. Also, at hα7-wt nAChR [1], the EC50 is 0.0955 µM. For the same compound, at hα7-wt nAChR [2], the PAM type was 2.
Take `CCNC(=O)Cc1cc(Nc2cccc(Cl)c2F)nn1-c1cc(C)nc(C)c1` [Compound 75, 3-[(3-chloro-2-fluorophenyl)amino]-1-(2,6-dimethyl-4-pyridinyl)-N-ethyl-1H-pyrazole-5-acetamide]: at hα7-wt nAChR [1], the EC50 was 0.372 µM. Besides, on hα7-wt nAChR [2], the PAM type was 2.
Consider `CC[C@H](O)Cc1cc(Nc2cc(F)c(F)c(F)c2)nn1-c1ccnc(C)c1` [Compound 20, (alphaS)-alpha-ethyl-1-(2-methyl-4-pyridinyl)-3-[(3,4,5-trifluorophenyl)amino]-1H-pyrazole-5-ethanol], for which the EC50 on hα7-wt nAChR [1] was 0.851 µM. The PAM type at hα7-wt nAChR [2] worked out at 2.
Take `CNC(=O)Cc1cc(Nc2cccc(C(F)(F)F)c2)nn1-c1ccnc(C)c1` [Compound 42, N-methyl-1-(2-methyl-4-pyridinyl)-3-[[3-(trifluoromethyl)phenyl]amino]-1H-pyrazole-5-acetamide]: the EC50 on hα7-wt nAChR [1] is 1.86 µM. Besides, the PAM type on hα7-wt nAChR [2] was found to be 4.
Consider `Cc1cc(-n2nc(Nc3cccc(C(F)(F)F)c3)cc2CCC(=O)N(C)C)ccn1` [Compound 49, N,N-dimethyl-1-(2-methyl-4-pyridinyl)-3-[[3-(trifluoromethyl)phenyl]amino]-1H-pyrazole-5-propanamide], for which, at hα7-wt nAChR [1], the EC50 was 0.295 µM. Further, the PAM type at hα7-wt nAChR [2] was 4.
For the compound `COc1cc(Cl)cc(Nc2cc(CC(=O)NC3CC3)n(-c3ccnc(C)c3)n2)c1` [Compound 77, 3-[(3-chloro-5-methoxyphenyl)amino]-N-cyclopropyl-1-(2-methyl-4-pyridinyl)-1H-pyrazole-5-acetamide], the EC50 at hα7-wt nAChR [1] is 0.603 µM. Moreover, at hα7-wt nAChR [2], the PAM type was 4.
For the compound `COc1cc(Cl)cc(Nc2cc(CCC(=O)N(C)C)n(-c3ccnc(C)c3)n2)c1` [Compound 85, 3-[(3-chloro-5-methoxyphenyl)amino]-N,N-dimethyl-1-(2-methyl-4-pyridinyl)-1H-pyrazole-5-propanamide], the EC50 on hα7-wt nAChR [1] is 0.295 µM. Further, on hα7-wt nAChR [2], the PAM type was 4.
With `CC[C@@H](O)Cc1cc(Nc2cc(OC)cc(C(F)(F)F)c2)nn1-c1ccnc(C)c1` [Compound 36, (alphaR)-alpha-ethyl-3-[[3-methoxy-5-(trifluoromethyl)phenyl]amino]-1-(2-methyl-4-pyridinyl)-1H-pyrazole-5-ethanol], at hα7-wt nAChR [1], the EC50 was 0.162 µM. Besides, on hα7-wt nAChR [2], the PAM type was determined as 2.
Consider `Cc1cc(-n2nc(Nc3ccc(F)c(F)c3)cc2CCC(=O)N(C)C)ccn1` [Compound 30, 3-[(3,4-difluorophenyl)amino]-N,N-dimethyl-1-(2-methyl-4-pyridinyl)-1H-pyrazole-5-propanamide], for which the EC50 on hα7-wt nAChR [1] was 0.977 µM. Moreover, the PAM type on hα7-wt nAChR [2] is 4.
As for `CC[C@H](O)Cc1cc(Nc2ccc(Br)cc2C#N)nn1-c1ccnc(C)c1` [Compound 124, 5-bromo-2-[[5-[(2S)-2-hydroxybutyl]-1-(2-methyl-4-pyridinyl)-1H-pyrazol-3-yl]amino]-benzonitrile], the EC50 on hα7-wt nAChR [1] was 1.66 µM. Also, the PAM type at hα7-wt nAChR [2] was found to be 2.
